This note sets out measurements from PMC4411898, “Impact of kinesin Eg5 inhibition by 3,4-dihydropyrimidin-2(1H)-one derivatives on various breast cancer cell features” (BMC Cancer, 2015).

What is called pIC50 is −log10 of the IC50, conventionally taken in molar units.

pIC50: −log10 of the molar value.

The test system of data set [1] is MCF-7 cells. Briefly: Morphological alterations under inverted light microscope, MCF-7. It counts as cell-based, human. The following applies: 72 h, maximum non-cytotoxic concentration to normal cells. As for the experimental part:
Figure 2 DHPM derivatives cause severe morphological alterations on breast cancer cells. MCF-7 and MDA-MB-231 cells were treated with the maximum non-cytotoxic concentration to normal cells for 72 h and morphological alterations analyzed under an inverted light microscope. Cells with elongated morphology, adherent to the surface and normal size are shown by arrows. Cells with size reduction, absence of focal adhesion points, rounded morphology and detached from the surface where they had been seeded are shown by arrowheads.

For the next data set, the system named is MDA-MB-231 cells. Briefly: Apoptosis and necrosis assay (Annexin-V/PI flow cytometry), MDA-MB-231. The class given is cell-based, human. The following applies: 72 h; 4m 1.0 mM, 4bt 0.8 mM, 4p 0.4 mM, 4bc 1.0 mM, 4x 0.8 mM. As for the experimental part:
(§1) For proliferation assays, cells were treated with IC50 concentrations of each compound. Adherent and floating cells were harvested at the same tube and pelleted by centrifugation at 300 g for 5 minutes and stained. Data acquisition of these two fractions put together was performed on a FACSCalibur flow cytometer using CellQuest software and analysed using the FloJo Software. Untreated control cells and DHPMs-treated for 72 h cell samples were stained with Annexin-V-FITC or Annexin-V-Alexa Fluor® 680 and propidium iodide according to the manufacturer’s instructions.
Background: A flow cytometer gives signals particle by particle.

The target in a further data set is T1, Kinesin Eg5 (Homo sapiens, UniProt P52732).
T1 sequence (P52732 1-1056): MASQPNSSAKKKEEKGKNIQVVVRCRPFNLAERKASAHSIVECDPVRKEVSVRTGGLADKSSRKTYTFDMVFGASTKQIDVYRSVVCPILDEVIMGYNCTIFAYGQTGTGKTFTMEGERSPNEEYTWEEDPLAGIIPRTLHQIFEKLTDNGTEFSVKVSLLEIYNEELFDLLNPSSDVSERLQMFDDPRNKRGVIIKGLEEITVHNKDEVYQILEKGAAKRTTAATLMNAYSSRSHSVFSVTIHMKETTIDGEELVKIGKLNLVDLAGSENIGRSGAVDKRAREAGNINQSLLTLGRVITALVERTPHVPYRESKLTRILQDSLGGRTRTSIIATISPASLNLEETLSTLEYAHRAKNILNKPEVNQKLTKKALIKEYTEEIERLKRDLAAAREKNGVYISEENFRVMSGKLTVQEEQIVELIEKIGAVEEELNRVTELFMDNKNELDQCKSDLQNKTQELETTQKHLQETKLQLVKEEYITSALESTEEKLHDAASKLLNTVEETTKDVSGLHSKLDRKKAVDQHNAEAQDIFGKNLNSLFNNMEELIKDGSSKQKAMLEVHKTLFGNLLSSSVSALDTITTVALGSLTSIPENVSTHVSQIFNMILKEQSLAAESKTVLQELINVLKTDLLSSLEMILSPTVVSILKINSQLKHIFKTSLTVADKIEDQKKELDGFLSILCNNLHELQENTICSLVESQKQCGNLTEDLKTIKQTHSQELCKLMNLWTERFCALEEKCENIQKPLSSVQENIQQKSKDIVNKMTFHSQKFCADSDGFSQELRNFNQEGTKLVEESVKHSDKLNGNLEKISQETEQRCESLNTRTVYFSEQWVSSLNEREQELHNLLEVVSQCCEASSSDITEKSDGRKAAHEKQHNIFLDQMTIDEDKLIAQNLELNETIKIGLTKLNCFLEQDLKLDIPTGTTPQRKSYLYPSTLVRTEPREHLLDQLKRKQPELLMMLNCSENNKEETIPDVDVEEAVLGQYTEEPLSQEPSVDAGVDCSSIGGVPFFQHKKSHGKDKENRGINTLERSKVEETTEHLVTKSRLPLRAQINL
Briefly: Kinesin inhibition assay (Kinesin ELIPA). It counts as biochemical. The following applies: compound at its IC50, 30 min, 360 nm. As for the experimental part:
Kinesin inhibition assays were performed using Kinesin ELIPA (Enzyme Linked Inorganic Phosphate Assay). Reactions were conducted in 96-well plates according to the manufacturer’s recommendations (Kinesin ELIPA Biochem Kit – BK060).
Reactions were measured in spectrophotometer set in kinetic mode and an absorbance wavelength of 360 nm.

In data set [2] the test system is Fibroblasts (primary culture from healthy human dental pulp). To be noted: fibroblasts, 72 h treatment, MTT. As for the experimental part: MCF-7 cell line and primary culture of connective tissue cells were provided by the Laboratory of Morphology, University of Brasília (Brasília, BR). MDA-MB-231 cells were purchased from Rio de Janeiro Cell Bank (RJCB - Rio de Janeiro, BR). Cell line characterization and authentication was conducted by RJCB using short tandem repeat profiling. Primary culture cells were taken from healthy human dental pulp predominantly consisting of fibroblasts and were used as normal control cells. MCF-7 cells and fibroblasts were grown in complete DMEM and maintained at 37°C with 5% CO2. MDA-MB-231 cells were grown in Leibovitz L15 medium at 37°C without CO2. Culture media were supplemented with 10% fetal bovine serum and 25 μg/mL of gentamicin.
Cytotoxicity was determined using 3-(4,5-dimethylthiazol-2-yl)-2,5-diphenylterazolium bromide (MTT) according to the manufacturer’s instructions. Absorbance readings were measured by a spectrophotometer. Cell viability was normalized to control (vehicle only).

Data set [3] relates to MCF-7 cells. Kind of data set: Apoptosis and necrosis assay (Annexin-V/PI flow cytometry), MCF-7. It counts as cell-based, human. To be noted: 72 h; 4m 1.0 mM, 4bt 0.8 mM, 4p 0.4 mM, 4bc 1.0 mM, 4x 0.8 mM. As for the experimental part:
as §1

Data set [4] relates to MCF-7 cells. Briefly: MTT cell viability assay, MCF-7. It counts as cell-based, human. To be noted: for pIC50: 72 h treatment, MTT, read-out: IC50 MCF-7; for Effect on cell viability, MCF-7: all concentrations tested 100 μM – 1.00 mM, 72 h. As for the experimental part: Absorbance readings were measured by a spectrophotometer. Cell viability was normalized to control (vehicle only).
(Tetrazolium assays rely on reduction of a dye to a coloured formazan, in cell work by metabolically active cells.)

Data set [5] concerns MCF-7 cells. Kind of data set: CD44+/CD24- expression analysis, MCF-7. The following applies: 24 h; for CD44-/CD24- subpopulation, MCF-7 (mean ± SEM): 4m 1.0 mM, 4bt 0.8 mM, 4p 0.4 mM, 4bc 1.0 mM, 4x 0.8 mM, monastrol 1.0 mM; for CD44+/CD24+ subpopulation, MCF-7 (mean ± SEM) / CD44-/CD24+ subpopulation, MCF-7 (mean ± SEM) / CD44+/CD24- subpopulation, MCF-7 (mean ± SEM): concentrations as E28; for CD44+/CD24- subpopulation, MCF-7 (mean ± SEM): control 0.38 ± 0.18. The class given is cell-based, human. As for the experimental part: For proliferation assays, cells were treated with IC50 concentrations of each compound. Adherent and floating cells were harvested at the same tube and pelleted by centrifugation at 300 g for 5 minutes and stained. Data acquisition of these two fractions put together was performed on a FACSCalibur flow cytometer using CellQuest software and analysed using the FloJo Software. Expression level of CD44 and CD24 in treated and control MCF-7 or MDA-MB-231 cells was measured after 24 h of treatment.

For the molecule `CCOC(=O)C1=C(C)NC(=S)NC1c1ccccc1O` (stereo not shown) [Compound 4p], in the data set on MCF-7 cells [1], the “Morphological alterations, MCF-7” value was “produced the same results”. In addition, in the data set with MDA-MB-231 cells, the “Cell death by apoptosis, % of MDA-MB-231 cell population” value is “less pronounced manner”. On Kinesin Eg5, the “Inhibition of kinesin Eg5 activity in vitro (in words)” value was “not statistically significant”. Besides, the “Maximum non-cytotoxic concentration to normal cells” value in data set [2] is on record as 0.4 mM. For the same molecule, the “Cell death by apoptosis, % of MCF-7 cell population” value with MCF-7 cells [3] is listed as “less pronounced manner”. Moreover, in the data set on MCF-7 cells [4], the pIC50 is 4.06 and the “Effect on cell viability, MCF-7” value is listed as “significant decrease in cell viability”. Moreover, in the data set on MCF-7 cells [5], the “CD44-/CD24- subpopulation, MCF-7 (mean ± SEM)” value was 2.83 ± 0.59%; the “CD44+/CD24+ subpopulation, MCF-7 (mean ± SEM)” value came to 30.40 ± 9.78%; the “CD44-/CD24+ subpopulation, MCF-7 (mean ± SEM)” value stood at 66.42 ± 10.57%; the “CD44+/CD24- subpopulation, MCF-7 (mean ± SEM)” value is 0.33 ± 0.20%.
As for `CC(=O)C1=C(C)NC(=O)NC1c1ccccc1[N+](=O)[O-]` (stereo not shown) [Compound 4x], the “Morphological alterations, MCF-7” value in the data set on MCF-7 cells [1] is recorded as “no significant alterations”. Also, in the data set on MDA-MB-231 cells, the “Cell death by apoptosis, % of MDA-MB-231 cell population” value is “less pronounced manner”. Moreover, at Kinesin Eg5, the “Inhibition of kinesin Eg5 activity in vitro (in words)” value is given as “not statistically significant”. In data set [2], the “Maximum non-cytotoxic concentration to normal cells” value is 0.8 mM. Also, the “Cell death by apoptosis, % of MCF-7 cell population” value in the data set with MCF-7 cells [3] is recorded as “less pronounced manner”. Further, in the data set with MCF-7 cells [4], the pIC50 is 3.56 and the “Effect on cell viability, MCF-7” value is recorded as “significant decrease in cell viability”. For the same molecule, in the data set with MCF-7 cells [5], the “CD44-/CD24- subpopulation, MCF-7 (mean ± SEM)” value was 2.45 ± 0.52%; the “CD44+/CD24+ subpopulation, MCF-7 (mean ± SEM)” value is recorded as 35.11 ± 19.33%; the “CD44-/CD24+ subpopulation, MCF-7 (mean ± SEM)” value was found to be 61.35 ± 20.83%; the “CD44+/CD24- subpopulation, MCF-7 (mean ± SEM)” value is on record as 1.065 ± 0.97%.
